Assay results from patent US20170049739A1, “PROSTACYCLIN COMPOUNDS, COMPOSITIONS AND METHODS OF USE THEREOF” (INSMED INCORPORATED, priority 2013, published 2017).

How the values were obtained:
NR8383 cells = assay: NR8383 cell proliferation assay; format: cell-based, rat; conditions: unformulated alkyl esters, 0.195 μM-25 μM, 72 hour incubation
Protocol: Rat alveolar NR8383 cells were harvested when the monolayer was 50-90% confluent (use passage 5-11). Because the NR8383 cells include both adherent and non-adherent cells, media was transferred to a 50 mL Falcon tube. To obtain the cells remaining in the flask, 2 mL of plain media was added, and the remaining cells were scraped out of the 75 cm^2 flask with a cell scraper and added to the 50 mL tube. […] SH30071.03) […] Technologies, cat #: 15410-122)). Cell number was determined using a hemacytometer. […] Measurements and calculations were made as described above for the CHO-K1 cells.

CHO-K1 cells = assay: CHO-K1 cell proliferation assay; conditions: unformulated alkyl esters, 0.195 μM-25 μM, 48 hour incubation
Protocol: CHG-K1 cells were harvested when the cell monolayer was 50-90% confluent (use passage 4-11). Media was aspirated out of the flask, and cells were rinsed with 2 mL of F12 media. Next, 1 mL of pre-warmed (37° C.) 0.25%o trypsin-EDTA (Life Technologies, Cat#: 25300054) was added, and cells were dislodged from the flask by tapping it on the side. Complete growth media (F12 (Life Technologies, Cat #: 31765092) +10%FBS (Hyclone, Cat #: SH30071.03)+1× Pen-Strep (Life Technologies, cat #15140-122) was then added at a volume of 10 mL. Cells were eentrifuged at 250×g for 5 minutes at room temperature, and the media was aspirated. The cell pellet was resuspended in 10 ml. complete growth media. Cell number was determined using a hemacytometer. Ceils were then seeded at 2000 cells per well of a 96-well plate in 100 μL of complete growth media. The plate was incubated overnight at 37° C. and 5% CO2 in a water-jacketed incubator.
The next day, 80 μL of fresh complete media was added to each well, and CHO—K1 cells were challenged with treprostinil compound and composition treatments. The working solutions were prepared at 10× concentration, and following 2 fold serial dilutions, 20 μL aliquots were added per well to arrive at a final 1× concentration. Following a 48 hour incubation at 37° C. and 5% CO2 in a water-jacketed incubator, the inhibitory effect on cell proliferation was determined. Plates were analyzed using 20 μL of Presto Blue reagent (Life Technologies, cat #: A13262) per well. The reagent was mixed, and plates were incubated for 1 hour at 37° C. and 5% CO2 in a water-jacketed incubator. Plates were read using either a CytoFluor Series 4000 (PerSeptive BioSystems) or Synergy Neo microplate reader (BioTek) with emission λ: 590 nm and excitation λ: 560 nm.
Following a 48 hour incubation period, the inhibitory effect of the treprostinil derivative compositions on cell proliferation was determined.
CHO—K1 cells were challenged with treprostinil alkyl esters, i.e., TR compounds of Formula (A), having the following R2 groups: • C2, C3, C4, C5, C6, C8, C10 or C12 straight chain alkyl, at dosages ranging from 0.098 μM to 25 μM, Following a 48 hour incubation period, the inhibitory effect on cell proliferation was determined.
Following a 72 hour incubation period, the inhibitory effect on cell proliferation was determined. Following a 48 hour incubation period, the inhibitory effect on cell proliferation was determined.
Similarly, CHG-K1 cells were challenged with the treprostinil compositions T612 (R2═C2), T613 (R2═C8) at concentrations ranging from 1.41 μM to 180 μM.

[1] = Treprostinil alkyl ester conversion to treprostinil in monkey lung tissue homogenate; format: in vitro ADME; conditions: 37° C., 200 nM, 10 mg/mL of protein, 4 hours
Protocol: (§1) Treprostinil alkyl ester conversion to treprostinil was also measured in the presence of rat, dog and monkey lung tissue homogenate at 37° C. Mere, data were calculated based on fit of exponential increase to the maximum (experiments performed in duplicate). The results of this study are provided below in Table 2A and FIG. 37. […] Both FIG. 37 experiments (left and right graphs) were performed in duplicate and the lines represent nonlinear exponential regression assuming 1 phase decay.

[2] = Treprostinil alkyl ester conversion to treprostinil in dog lung tissue homogenate; format: in vitro ADME; conditions: 37° C., 200 nM, 10 mg/mL of protein, 4 hours
Protocol: as §1

[3] = Treprostinil alkyl ester conversion to treprostinil in rat lung tissue homogenate; format: in vitro ADME; conditions: 37° C., 200 nM, 10 mg/mL of protein, 4 hours
Protocol: as §1

With CCCCCCCCCCCCOC(=O)COc1cccc2c1C[C@H]1C[C@@H](O)[C@H](CC[C@@H](O)CCCCC)[C@H]1C2 [C12-TR, dodecyl-treprostinil] the “Effect on cell proliferation” value (NR8383 cells) was “No detectable cell inhibition”, the “Effect on cell proliferation: concentration with detectable inhibition” value (CHO-K1 cells) was “No detectable cell inhibition” and the “Rate of treprostinil alkyl ester conversion” value (“Rate” below) [1] was 0.6 nmOL/h * g of protein. The “Rate” value [2] was 2.2 nmOL/h * g of protein and the “Rate” value [3] was 1.1 nmOL/h * g of protein.
